Measurements from patent US10501493B2, “Broad spectrum antibiotics” (priority 2011, dated 2019).
Values after ≈ are worked out from the molar mass of the structure shown.

Assays:
E. coli ATCC 25922 = assay: In vitro antimicrobial activity, MIC by broth micro-dilution; type: cell-based; settings: Escherichia coli, ATCC25922; read-out: MIC class, E. coli ATCC 25922
Procedure: (§1) In vitro antimicrobial activity of each compound was determined by measuring minimal inhibitor concentrations (MICs) using the broth micro-dilution technique as approved by the Clinical and Laboratory Standards Institute (CLSI). The microbiological panel examined contains a number of bacterial species including E. coli MG1655, P. aeruginosa, S. aureus, and S. epidermidis. In addition, the panel includes previously described pseudo-isogenic strains of these four species (P. A. Smith et al. Chem Biol 2010, 1223-1231), in which a specific proline residue in SPase (called LepB in Gram-negative organisms an SpsB in Gram-positive organisms) has been mutated to a different amino acid. The resulting strains have increased susceptibility to the arylomycin class of antibiotics. Analysis of the strains lacking this proline residue will increases the dynamic range of the assay, and comparison of the sensitivities of the isogenic pairs provides ongoing confirmation that the activity gained through derivatization is specific to the inhibition of SPase. Briefly, bacterial streaks were grown on Mueller Hinton Agar II (Difco™) with or without 5% lysed horse blood for a period of 24 hours at either 35° C. or 28° C. Bacterial colonies were suspended in cation adjusted Mueller Hinton broth and diluted to a final concentration of 1*10^7 colony forming units/ml. Two-fold serial dilutions of each compound were arrayed into 96-well plates (100 μl final volume per well) and 5 ul of the bacterial suspension will be added. […] MICs were periodically checked plating serial dilutions of MIC wells and quantitatively determining viable colonies.

[1] = tested on: S. aureus NCTC-8325 SpsB(P295); assay: as above; type: cell-based; settings: Staphylococcus aureus, NCTC8325, read-out: MIC class, S. aureus NCTC-8325 SpsB(P295)
Procedure: as §1

S. epidermidis RP62A = assay: as above; type: cell-based; settings: Staphylococcus epidermidis, RP62A; read-out: MIC class, S. epidermidis RP62A
Procedure: as §1

S. pneumoniae D39 = assay: as above; type: cell-based; settings: Streptococcus pneumoniae, D39; read-out: MIC class, S. pneumoniae D39
Procedure: as §1

[2] = tested on: E. col ATCC 25922 LepB(P84L); assay: as above; type: cell-based, E. coli; settings: Escherichia coli, ATCC25922, read-out: MIC class, E. col ATCC 25922 LepB(P84L)
Procedure: as §1

S. aurues NCTC-8325 = assay: as above; type: cell-based, S. aureus; settings: Staphylococcus aureus, NCTC8325, read-out: MIC class, S. aurues NCTC-8325
Procedure: as §1

E. coli SPase = target: T1, E. coli SPase (Escherichia coli, UniProt P00803); assay: Enzymatic fluorogenic substrate cleavage assay for IC50; type: biochemical
T1 construct: Full length His-tagged E. coli SPase proteins were expressed in E. coli BL21(DE3); His-tag; made in house; host or cells: E. coli BL21(DE3)
Procedure: (§2) Full length His-tagged E. coli SPase proteins were expressed in E. coli BL21(DE3) containing the plasmid pET23-lepB, P. A. Smith et al. Chem Biol 2010, 1223-1231. Briefly, saturated overnight cultures grown in 20 ml of Luria-Bertani medium supplemented with ampicillin were subcultures into 1.5 L of Luria-Bertani, and shaken at 37° C. until an optical density at 600 nm of 0.4-0.5 was achieved. Protein expression was induced with Isopropyl β-D-1-thiogalactopyranoside (ITPG) at a final concentration of […], and purified using nickel affinity chromatography. Full length His-tagged S. aureus SPase protein was expressed similarly from E. coli BL21(DE3) containing the plasmid pCDF1-SaSpsB or pCDF1-SaSpsB(P29S) and purified similarly to the E. coli protein with the following exceptions. SPase protein was solubilized using 300 mM NaCl, 20 mM Tris pH 8.06, 5 mM Imidazole, 10% glycerol, 1% Triton X-100, prior to purification in Ni-NTA Superflow resin and resin bound protein was washed in a similar buffer containing 1% Elugent in place of Triton X-100 prior to protein eluted in wash buffer supplemented with 300 mM imidazole. Protein purify was judged to exceed 95% by visual inspection of SDS-PAGE followed by Comassie staining. All protein concentrations were determined by BCA assay.
(§3) In addition to the equilibrium binding assays, compound activity is also characterized by measuring inhibition of E. coli and S. aureus substrate cleavage reactions using fluorogenic peptides developed at RQx Pharmaceuticals. Briefly, two fluorogenic peptide substrates (decanoyl-LSSPA Y^NO2 A ? ADK^abzPD (SEQ ID NO: 1) and decanyol-LTPTAY^NO2 A ? ASKK^abzDD (SEQ ID NO: 2)) have been synthesized, where abz is the fluorescence donor 2-aminobenzamide, YNO2 is the fluorescence acceptor 3-nitrotyrosine, and the cleavage site is indicated with an arrow. These substrates are processed with a second order rate constant (Kcat/KM) of 10^5 M^−1s^−1 for E. coli and S. aureus SPase enzymes, and cleavage results in a greater than 10-fold increase in fluorescence signal (excitation at 314 nm, emission at 416 nm) as measured using a SpectraMax M2 fluorescence microplate reader. Two-folder serial dilutions of compound are prepared in cleavage reaction buffer consisting of: 50 mM Tris-HCl pH 8.0, 100 mM NaCl, 10% glycerol, 1 mM EDTA, detergent (1% NP-40 or 0.1% Elugent™ for E. coli LepB or S. aureus SpsB respectively) and either 2.5 nM of E. coli SPase enzyme or 10 nM of S. aureus SPase enzyme. 40 μl aliquots of the compound dilution series in the protein/buffer solution is transferred to black 384-well polypropylene plates, and 10 μl of fluorogenic peptide at a concentration of 100 μM is added to initiate the reaction. The increase in fluorescence, corresponding to substrate cleavage, is monitored continuously at room temperature for 30 minutes and initial reaction rates are calculated based in the linear increase in fluorescence from the initial 30 minutes of the reaction. Reaction rates are plotted as a function of compound concentration, and IC50 values are determined nonlinear regression analysis (SoftMax® Pro v5.4) of the sigmoidal dose-response curve.

S. aureus SPase = target: T2, S. aureus SPase (Staphylococcus aureus, UniProt P0A070); assay: as above; type: biochemical
T2 construct: Full length His-tagged S. aureus SPase protein was expressed similarly; His-tag; made in house; host or cells: E. coli BL21(DE3)
Procedure: as §2, §3

## CCCCCCCCCCCCCCCC(=O)N(C)[C@H](CO)C(=O)N[C@H](C)C(=O)NCC(=O)N(C)[C@@H]1C(=O)N[C@@H](C)C(=O)N[C@H](C(=O)NCCOC)Cc2ccc(O)c(c2)-c2cc1ccc2O [Compound 61]
E. coli ATCC 25922
  MIC: > 64 µg/mL
[1]
  MIC: > 64 µg/mL
S. epidermidis RP62A
  MIC: > 64 µg/mL
S. pneumoniae D39
  MIC: < 8 µg/mL
[2]
  MIC: 16 to 64 µg/mL (≈ 17.1 to 68.2 µM)
S. aurues NCTC-8325
  MIC: > 64 µg/mL
E. coli SPase
  IC50: 1 to 10 µM
S. aureus SPase
  IC50: > 10 µM

## CCCCCCCCCCCCCCCC(=O)N(C)C(CO)C(=O)N[C@H](C)C(=O)NCC(=O)N(C)[C@@H]1C(=O)N[C@@H](C)C(=O)NC(C(=O)NCC(O)CO)Cc2ccc(O)c(c2)-c2cc1ccc2O (some centres unmarked) [Compound 62]
E. coli ATCC 25922
  MIC: > 64 µg/mL
[1]
  MIC: > 64 µg/mL
S. epidermidis RP62A
  MIC: > 64 µg/mL
S. pneumoniae D39
  MIC: 16 to 64 µg/mL (≈ 16.8 to 67.1 µM)
[2]
  MIC: 16 to 64 µg/mL (≈ 16.8 to 67.1 µM)
S. aurues NCTC-8325
  MIC: > 64 µg/mL
E. coli SPase
  IC50: 1 to 10 µM
S. aureus SPase
  IC50: > 10 µM

## CCCCCCCCCCCCCCCC(=O)N(C)[C@H](CO)C(=O)N[C@H](C)C(=O)NCC(=O)N(C)[C@@H]1C(=O)N[C@@H](C)C(=O)N[C@H](C(=O)N[C@H](C)CO)Cc2ccc(O)c(c2)-c2cc1ccc2O [Compound 63]
E. coli ATCC 25922
  MIC: > 64 µg/mL
[1]
  MIC: > 64 µg/mL
S. epidermidis RP62A
  MIC: 16 to 64 µg/mL (≈ 17.1 to 68.2 µM)
S. pneumoniae D39
  MIC: 16 to 64 µg/mL (≈ 17.1 to 68.2 µM)
[2]
  MIC: > 64 µg/mL
S. aurues NCTC-8325
  MIC: > 64 µg/mL
E. coli SPase
  IC50: > 10 µM
S. aureus SPase
  IC50: > 10 µM

## CCCCCCCCCCCCCCCC(=O)N(C)[C@H](CO)C(=O)N[C@H](C)C(=O)NCC(=O)N(C)[C@@H]1C(=O)N[C@@H](C)C(=O)N[C@H](C(=O)NC[C@H](C)O)Cc2ccc(O)c(c2)-c2cc1ccc2O [Compound 64]
E. coli ATCC 25922
  MIC: > 64 µg/mL
[1]
  MIC: > 64 µg/mL
S. epidermidis RP62A
  MIC: < 8 µg/mL
S. pneumoniae D39
  MIC: < 8 µg/mL
[2]
  MIC: 16 to 64 µg/mL (≈ 17.1 to 68.2 µM)
S. aurues NCTC-8325
  MIC: > 64 µg/mL
E. coli SPase
  IC50: 1 to 10 µM
S. aureus SPase
  IC50: > 10 µM

## CCCCCCCCCCCCCCCC(=O)N(C)[C@H](CO)C(=O)N[C@H](C)C(=O)NCC(=O)N(C)[C@@H]1C(=O)N[C@@H](C)C(=O)N[C@H](C(=O)NC[C@@H](C)O)Cc2ccc(O)c(c2)-c2cc1ccc2O [Compound 65]
E. coli ATCC 25922
  MIC: > 64 µg/mL
[1]
  MIC: > 64 µg/mL
S. epidermidis RP62A
  MIC: < 8 µg/mL
S. pneumoniae D39
  MIC: 16 to 64 µg/mL (≈ 17.1 to 68.2 µM)
[2]
  MIC: 16 to 64 µg/mL (≈ 17.1 to 68.2 µM)
S. aurues NCTC-8325
  MIC: > 64 µg/mL
E. coli SPase
  IC50: < 1 µM
S. aureus SPase
  IC50: 1 to 10 µM

## CCCCCCCCCCCCCCCC(=O)N(C)[C@H](CO)C(=O)N[C@H](C)C(=O)NCC(=O)N(C)[C@@H]1C(=O)N[C@@H](C)C(=O)N[C@H](C(=O)N[C@@H](CO)C(C)C)Cc2ccc(O)c(c2)-c2cc1ccc2O [Compound 66]
E. coli ATCC 25922
  MIC: > 64 µg/mL
[1]
  MIC: > 64 µg/mL
S. epidermidis RP62A
  MIC: 16 to 64 µg/mL (≈ 16.6 to 66.2 µM)
S. pneumoniae D39
  MIC: 16 to 64 µg/mL (≈ 16.6 to 66.2 µM)
[2]
  MIC: 16 to 64 µg/mL (≈ 16.6 to 66.2 µM)
S. aurues NCTC-8325
  MIC: > 64 µg/mL
E. coli SPase
  IC50: 1 to 10 µM
S. aureus SPase
  IC50: > 10 µM

## CCCCCCCCCCCCCCCC(=O)N(C)[C@H](CO)C(=O)N[C@H](C)C(=O)NCC(=O)N(C)[C@@H]1C(=O)N[C@@H](C)C(=O)N[C@H](C(=O)NC(CO)CO)Cc2ccc(O)c(c2)-c2cc1ccc2O [Compound 67]
E. coli ATCC 25922
  MIC: > 64 µg/mL
[1]
  MIC: > 64 µg/mL
S. epidermidis RP62A
  MIC: 16 to 64 µg/mL (≈ 16.8 to 67.1 µM)
S. pneumoniae D39
  MIC: 16 to 64 µg/mL (≈ 16.8 to 67.1 µM)
[2]
  MIC: 16 to 64 µg/mL (≈ 16.8 to 67.1 µM)
S. aurues NCTC-8325
  MIC: > 64 µg/mL
E. coli SPase
  IC50: > 10 µM
S. aureus SPase
  IC50: > 10 µM
